Data on 2 compounds can be found in US20040018527A1, “Differential patterns of gene expression that predict for docetaxel chemosensitivity and chemo resistance” (priority 2002, published 2004).

Assay [1] has as its system MDA-MB-23 1 breast cancer cell line. The conditions noted are these: MDA-MB-23 1 cells overexpressing heat shock protein 27; cited from earlier work.
The subject of assay [2] is locally advanced breast cancer. Description: phase II study with neoadjuvant docetaxel, clinical response (residual disease) after 4 cycles. Format: in vivo, human. From the text: From September 1999 to June 2001, patients with locally advanced breast cancer (primary cancers greater than 4 cm, or with clinically evident axillary metastases) were considered for a phase II study with neoadjuvant docetaxel. The inclusion criteria were 1) age greater than 18 years and a diagnosis of breast cancer confirmed by core needle biopsy, 2) premenopausal status accompanied by appropriate contraception, 3) adequate performance status, and 4) adequate liver and kidney function tests (all within 1.5 times the upper limit of normal). Exclusion criteria included 1) severe underlying chronic illness or disease, and 2) treatment with other chemotherapeutic drugs while on study.
Clinical staging and size of primary tumor was recorded at the start of treatment, at each cycle, and after completion of 4 cycles of chemotherapy. Tumor size (product of the two largest perpendicular diameters) measured before and after 4 cycles of neoadjuvant chemotherapy was used to compute the percentage of residual disease. The median residual disease was then calculated, and this degree of response was then used to divide the cancers into 2 groups of sensitive and resistant categories of approximately equal numbers before gene expression analysis.
Core biopsies of the primary cancers were undertaken before administration of single agent docetaxel as neoadjuvant treatment. Docetaxel at 100 mg/m2 was given every three weeks for a total of 4 cycles, and clinical response assessed after the fourth cycle, at 12 weeks. As the standard of care, patients were continued on neoadjuvant chemotherapy through the full 4 cycles unless there was clear documentation of progressive disease, defined as increase in tumor size of more than 25%. Primary surgery and standard adjuvant therapy was then administered following completion of neoadjuvant docetaxel. In order to maximize the likelihood of obtaining sufficient tissue, approximately six core biopsies using a Bard MaxCore Biopsy Instrument (#MC1410) were taken. Biopsies were performed under local anesthesia, using the same entry point, but reorienting the needle. Two to three core biopsy specimens were immediately transferred for snap freezing at −80° C. for cDNA array analysis. The remaining specimens were fixed in formalin for diagnostic and possible immunohistochemical analysis.
The clinical characteristics of the 24 patients enrolled in this phase II neoadjuvant study are included in Table 1. Before treatment, the median tumor size was 8 cm (range 4 to 30 cm). Prior to gene expression analysis, the sensitivity and resistance was defined based on the percentage of residual disease after treatment. It was determined that the median residual disease after chemotherapy was 30%. Then, it was arbitrarily defined that sensitive tumors were those with 25% residual disease or less and resistant tumors were those with greater than 25% residual disease, as this cut-off divides the numbers of patients almost equally into two groups for statistical comparison. In addition, the presenting tumors were large in this study of locally advanced breast cancer, and tumor regressions of at least 75% following chemotherapy would almost certainly represent clinically responsive disease.

For assay [3], the system named is HSP27-overexpressing cell lines. To be noted: cited from earlier work.

As to `COc1cccc2c1C(=O)c1c(O)c3c(c(O)c1C2=O)C[C@@](O)(C(=O)CO)C[C@@H]3O[C@H]1C[C@H](N)[C@H](O)[C@H](C)O1` [Adriamycin], the “association of HSP27 overexpression with drug resistance” value in assay [1] was “resistance”.
Turning to `CC(=O)O[C@@]12CO[C@@H]1C[C@H](O)[C@@]1(C)C(=O)[C@H](O)C3=C(C)[C@@H](OC(=O)[C@H](O)[C@@H](NC(=O)OC(C)(C)C)c4ccccc4)C[C@@](O)([C@@H](OC(=O)c4ccccc4)[C@H]21)C3(C)C` [docetaxel], in assay [2] (3/13 resistant tumors), the “resistant tumors with residual tumors 100% or greater of baseline” value is given as 23%. Besides, the “sensitive tumors with minimal residual disease (<10% residual tumor)” value in assay [2] (5/11 sensitive tumors) is on record as 45%. Besides, in assay [2] (6 additional patients of the same clinical study, all 6 sensitive tumors), the “residual disease, independent cohort” value is reported as “less than 25%”. Also, the “resistant tumors with residual tumors ≧60%” value in assay [2] (7/13 resistant tumors) was found to be 58%. Besides, the “patients sensitive to docetaxel (25% residual disease or less)” value in assay [2] (11 of 24 patients) is 46%. In assay [2] (13 of 24 patients), the “patients resistant to docetaxel (greater than 25% residual disease)” value is recorded as 54%. For the same compound, in assay [2] (24 patients, docetaxel 100 mg/m2 every three weeks, 4 cycles, tumor size after vs before, at 12 weeks), the “median residual disease after chemotherapy” value worked out at 30%. For the same compound, the sensitivity to docetaxel entry in assay [3] is given as “remain sensitive”.
